The record followed here is patent US9994552B2, “Compositions useful for treating disorders related to kit” (BLUEPRINT MEDICINES CORPORATION, priority 2013, dated 2018).

One test has as its target D816V Kit (Homo sapiens (Human), UniProt P10721, D816V). Put plainly: Kit D816V assay at Km (Caliper electrophoretic mobility shift). The note with it: for IC50: D816V Kit 0.5 nM, 15 uM ATP (Km), 1 uM Srctide, 25 C, 90 minutes, read-out: INH-KITD816V ENZ-KM IC50 (nM) (Num). It is filed as biochemical. An outline of the steps: (§1)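 Read-out is the ratio of phosphorylated to unphosphorylated fluorescent peptide, resolved by mobility shift on a Caliper EZ Reader 2.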

The target in a further test is wild type Kit (Homo sapiens (Human), UniProt P10721). The test can be described thus: Kit wild type assay at Km (Caliper electrophoretic mobility shift). The format is biochemical. Particulars: wild type Kit 2 nM, 400 uM ATP (Km), 1 uM Srctide, 25 C, 90 minutes; read-out: INH-KITWT ENZ-KM IC50 (nM) (Num). The procedure, abridged:
as §1

A further test has as its system HMC1.2 cells. The test can be described thus: HMC1.2 Proliferation Assay (CellTiter-Glo). Particulars: 72 h, read-out: HMC1.2 Proliferation IC50. In general terms: Cellular ATP, detected with luciferase, serves as a proxy for viable cell number.
The target in test [1] is Kit D816V kinase activity (Kit autophosphorylation at tyrosine 719) (Homo sapiens (Human), UniProt P10721, D816V/V560G). Put plainly: HMC1.2 Autophosphorylation Assay (AlphaLISA phospho-Y719 c-Kit). For orientation: Alpha assays give light when donor and acceptor beads are brought close together.
Sequence of Kit D816V kinase activity (Kit autophosphorylation at tyrosine 719) (P10721 26-976 V560G/D816V): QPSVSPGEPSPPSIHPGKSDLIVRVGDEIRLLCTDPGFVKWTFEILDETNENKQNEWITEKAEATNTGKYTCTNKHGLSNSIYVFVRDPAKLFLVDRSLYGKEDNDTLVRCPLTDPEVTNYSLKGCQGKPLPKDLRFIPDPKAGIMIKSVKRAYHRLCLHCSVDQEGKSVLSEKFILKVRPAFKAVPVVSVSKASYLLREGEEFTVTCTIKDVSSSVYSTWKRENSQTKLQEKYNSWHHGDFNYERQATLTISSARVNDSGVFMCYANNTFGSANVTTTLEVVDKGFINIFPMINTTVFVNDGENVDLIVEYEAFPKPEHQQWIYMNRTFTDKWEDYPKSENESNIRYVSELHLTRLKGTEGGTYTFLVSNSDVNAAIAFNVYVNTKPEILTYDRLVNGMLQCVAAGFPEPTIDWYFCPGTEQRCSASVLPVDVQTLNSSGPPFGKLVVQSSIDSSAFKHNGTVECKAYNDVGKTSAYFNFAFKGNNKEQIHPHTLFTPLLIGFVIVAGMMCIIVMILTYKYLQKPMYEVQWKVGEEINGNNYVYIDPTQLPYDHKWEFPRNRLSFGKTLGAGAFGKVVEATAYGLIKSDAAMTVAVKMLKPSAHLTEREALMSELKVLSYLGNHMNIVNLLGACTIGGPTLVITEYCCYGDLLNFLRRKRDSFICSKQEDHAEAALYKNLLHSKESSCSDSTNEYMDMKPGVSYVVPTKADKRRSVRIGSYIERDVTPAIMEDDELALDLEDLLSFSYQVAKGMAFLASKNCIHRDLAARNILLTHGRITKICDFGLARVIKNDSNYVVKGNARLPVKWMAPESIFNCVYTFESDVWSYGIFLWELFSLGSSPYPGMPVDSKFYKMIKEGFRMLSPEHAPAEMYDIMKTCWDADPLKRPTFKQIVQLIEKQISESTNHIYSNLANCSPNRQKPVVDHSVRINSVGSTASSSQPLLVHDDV
Procedure: 10,000 HMC1.2 cells were incubated in 22 ul culture media (phenol-red free IMDM, no serum) in each well of a 384-well plate and serum starved overnight in a tissue culture incubator (5% CO2, 37° C.). […] After 90 minutes, 6 ul of 5× AlphaLISA Lysis Buffer (Perkin Elmer) supplemented with a protease and phosphatase inhibitor cocktail (Cell Signaling Technologies) was added to each well and shaken at 450 rpm for 15 minutes at 4° C. […] 10 ul of 100 ug/ml streptavidin donor beads (Perkin Elmer) were added to each well, blocked from light with aluminum adhesive and shaken at 300 rpm at room temperature for 2 hours. Fluorescence signal was obtained on Envision (Perkin Elmer) by AlphaScreen 384 well HTS protocol.

Sequence of wild type Kit (P10721 26-976): as the sequence (P10721 26-976 V560G/D816V) above, with G535V, V791D counted along it
Sequence of D816V Kit (P10721 26-976 D816V): as the sequence (P10721 26-976 V560G/D816V) above, with G535V counted along it
Procedure for HMC1.2 cells: 1000 HMC1.2 cells were incubated in 22 ul culture media (IMDM, 10% calf serum with Iron) in each well of a 384-well plate overnight in a tissue culture incubator (5% CO2, 37° C.). […] After 3 days incubation in tissue culture incubator, 25 ul CellTiter-Glo (Promega) solution was added to each well for ATP/cell viability measurement.
In addition, these compounds were assayed for their ability to inhibit the dependence of these cells on Kit kinase activity by disrupting their growth and proliferation.

On to `COc1cc2c(N3CCN(c4ncc(Cc5ccccc5)cn4)CC3)ncnc2cc1OCCCN1CCN(C)CC1` [Compound 134], for which the IC50 is below 1 nM on D816V Kit, below 10 nM at wild type Kit, 100 to 1000 nM in the test with HMC1.2 cells and 10 to 100 nM in test [1].
In the case of `COc1cc2ncnc(N3CCN(c4ncc(Cc5ccccc5)cn4)CC3)c2cc1OCC(O)CO` (centres unmarked) [Compound 84], the IC50 at D816V Kit lay within 1.01 to 10 nM; on wild type Kit it was 11 to 100 nM; with HMC1.2 cells it was 1000 to 10000 nM; in test [1] it was 100 to 1000 nM.
For the compound `COc1cc2ncnc(N3CCN(c4ncc(Cc5ccccc5)cn4)C(C)C3)c2cc1OC` (centres unmarked) [Compound 23], the IC50 is 1.01 to 10 nM on D816V Kit, 11 to 100 nM at wild type Kit, 1000 to 10000 nM in the test with HMC1.2 cells and 100 to 1000 nM in test [1]. Moreover, the “times more potent against the D816V mutant than against the wild-type Kit” value on D816V Kit (D816V Kit versus wild-type Kit, enzyme assays at Km) is reported as “less than 5 times”.
Consider `COc1cc2ncnc(N3CCN(c4ncc(COc5ccccc5)cn4)CC3)c2cc1OC` [Compound 36], for which the IC50 at D816V Kit fell in the range of 1.01 to 10 nM; at wild type Kit, 11 to 100 nM; in the test on HMC1.2 cells, 1000 to 10000 nM; in test [1], 100 to 1000 nM.
Turning to `COc1cc2ncnc(N3CCN(c4ncc(Cc5ccccc5)cn4)CC3)c2cc1OCC1CCNCC1` [Compound 98], the IC50 was below 1 nM on D816V Kit, 11 to 100 nM on wild type Kit, 1000 to 10000 nM in the test on HMC1.2 cells and 10 to 100 nM in test [1].
In the case of `COc1cc2ncnc(N3CCN(c4ncc(Nc5ccccc5)cn4)CC3)c2cc1OC` [Compound 13, 2-(4-(6,7-dimethoxyquinazolin-4-yl)piperazin-1-yl)-N-phenylpyrimidin-5-amine], the IC50 on D816V Kit is 1.01 to 10 nM; at wild type Kit, 100 to 1000 nM; in the test on HMC1.2 cells, 1000 to 10000 nM; in test [1], 100 to 1000 nM.
As to `COc1cc2c(N3CCN(c4ncc(Cc5ccccc5)cn4)CC3)ncnc2cc1OCC(O)CO` (centres unmarked) [Compound 85], the IC50 at D816V Kit was in the range of 1.01 to 10 nM; on wild type Kit, 11 to 100 nM; in the test on HMC1.2 cells, 1000 to 10000 nM; in test [1], 100 to 1000 nM.
